Legend:
Type in all cases: in vivo
[1] = system: directly sowed rice plant; test: Test Example 3: effect on crop by foliage application, Wagner pot (symbol b); conditions: application herbicide amount 320 g/ha
Method in brief: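 Plants are raised from seed in flooded paddy conditions: water stands 0.1–0.5 cm over alluvial soil, and the pot is kept in a greenhouse at 25–30 °C. Species sown are barnyardgrass (E. crus-galli var. crus-galli), Leptochloa chinensis, Cyperus difformis and rice.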

[2] = system: Echinochloa crus-galli var. crus-galli; test: Test Example 5: herbicidal effect by foliage application, plastic box (symbol H); conditions: 320 g/ha, 3 weeks after application
Method in brief: (§1)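 Leaf-applied emulsion, water-diluted to a preset herbicide dose, on two-week-old seedlings raised in a 25° C. to 30° C. greenhouse; injury rated at 3 weeks using earlier criteria.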

Chenopodium album = test: Test Example 5: herbicidal effect by foliage application, plastic box (symbol O); conditions: 320 g/ha, 3 weeks after application
Method in brief: as §1

Galium spurium = test: Test Example 5: herbicidal effect by foliage application, plastic box (symbol Q); conditions: 320 g/ha, 3 weeks after application
Method in brief: as §1

Leptochloa chinensis = test: Test Example 3: herbicidal effect by foliage application, Wagner pot (symbol D); conditions: application herbicide amount 320 g/ha
Method in brief: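 Post-emergence, paddy-type test: seedlings 14 d old in shallow-flooded (0.1–0.5 cm) alluvial soil, 25–30 °C greenhouse. Emulsion diluted to target rate, sprayed on leaves. Read-out: visual effect on each species at 3 weeks, per set criteria.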

Veronica persica = test: Test Example 5: herbicidal effect by foliage application, plastic box (symbol R); conditions: 320 g/ha, 3 weeks after application
Method in brief: as §1

rapeseed = test: Test Example 5: effect on crop by foliage application, plastic box (symbol g); conditions: 320 g/ha, 3 weeks after application
Method in brief: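 Box culture: sterile diluvial soil, seeds spot-sown, ~1.5 cm cover, raised under glass at 25–30° C.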

Alopecurus myosuroides [3] = test: Test Example 5: herbicidal effect by foliage application, plastic box (symbol J); conditions: 320 g/ha, 3 weeks after application
Method in brief: as §1

beet = test: Test Example 4: effect on crop by soil treatment (symbol f); conditions: for f: beet, effect grade on crop: 320 g/ha; for f: beet, effect on crop grade: application herbicide amount 320 g/ha
Method in brief: (§2)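 Soil-treatment setup: crop and weed seeds were spot-sown into sterilized diluvial soil, then buried beneath approximately 1.5 cm of it, and the boxes were housed in a 25–30° C. greenhouse.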

Alopecurus myosuroides [4] = test: Test Example 4: herbicidal effect by soil treatment (symbol J)
Method in brief: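 Seeds were sown in sterilized diluvial soil, covered with about 1.5 cm of soil, and the soil surface was sprayed with a water-diluted emulsion of the compound at a predetermined rate. Plants grew in a greenhouse at 25° C. to 30° C.; effects were scored visually 3 weeks after application.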

Scirpus juncoides = test: Test Example 1: herbicidal activity, application before weed generation in submerged conditions (symbol B); conditions: application herbicide amount 320 g/ha
Method in brief: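 Greenhouse growth at 25–30 °C lasted 3 weeks after treatment, when each weed was graded 0–5 by herbicidal ratio. Treatment was a diluted emulsion applied to the water surface of 4 cm-submerged alluvial soil on the sowing day.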

soybean = test: Test Example 4: effect on crop by soil treatment (symbol d); conditions: for d: soybean, effect grade on crop: 320 g/ha; for d: soybean, effect on crop grade: application herbicide amount 320 g/ha
Method in brief: as §2

Digitaria ciliaris = test: Test Example 5: herbicidal effect by foliage application, plastic box (symbol F); conditions: 320 g/ha, 3 weeks after application
Method in brief: as §1

rice = test: Test Example 4: effect on crop by soil treatment (symbol b); conditions: for b: directly sowed rice plant, effect grade on crop: 320 g/ha; for b: directly sowed rice plant, effect on crop grade: application herbicide amount 320 g/ha
Method in brief: as §2

Apera spica-venti = test: Test Example 5: herbicidal effect by foliage application, plastic box (symbol L); conditions: 320 g/ha, 3 weeks after application
Method in brief: as §1

[5] = application herbicide amount 320 g/ha

Row | SMILES | effect on crop b (directly sowed rice plant), grade 0-5 [1] | H: Echinochloa crus-galli var. crus-galli, herbicidal effect (criteria 0-5) [2] | O: Chenopodium album, herbicidal effect (criteria 0-5) (Chenopodium album) | Q: Galium spurium, herbicidal effect (criteria 0-5) (Galium spurium) | herbicidal effect on D (Leptochloa chinensis), grade 0-5 (Leptochloa chinensis) | R: Veronica persica, herbicidal effect (criteria 0-5) (Veronica persica) | g: rapeseed, effect on crop (criteria 0-5) (rapeseed) | f: beet, effect grade on crop (beet) | J: Alopecurus myosuroides, herbicidal effect grade (Alopecurus myosuroides [4]; 320 g/ha) | Herbicidal effect grade, B: Scirpus juncoides (Scirpus juncoides) | d: soybean, effect grade on crop (soybean) | b: directly sowed rice plant, effect grade on crop (rice) | H: Echinochloa crus-galli var. crus-galli, herbicidal effect grade [2] | O: Chenopodium album, herbicidal effect grade (Chenopodium album) | Q: Galium spurium, herbicidal effect grade (Galium spurium) | R: Veronica persica, herbicidal effect grade (Veronica persica) | g: rapeseed, effect on crop grade (rapeseed) | J: Alopecurus myosuroides, herbicidal effect grade (Alopecurus myosuroides [3]) | F: Digitaria ciliaris, herbicidal effect grade (Digitaria ciliaris) | L: Apera spica-venti, herbicidal effect grade (Apera spica-venti) | also measured
1 | CON=C(C)CC1CC(OC(=O)N2CCN(C)CC2)=C(c2c(C)cc(C)cc2C)C1=O (stereo not drawn) [1-152] | 5 (Herbicidal ratio of 90% or more (almost completely withered)) | 5 (Herbicidal ratio of 90% or more (almost completely withered)) | 0 (Herbicidal ratio of 5% or lower (almost no effect)) | 0 (Herbicidal ratio of 5% or lower (almost no effect)) | 5 (Herbicidal ratio of 90% or more (almost completely withered)) | 0 (Herbicidal ratio of 5% or lower (almost no effect)) | 4 (Herbicidal ratio of 70% or higher and lower than 90%) | 0 (Herbicidal ratio of 5% or lower (almost no effect)) | 3 (Herbicidal ratio of 40% or higher and lower than 70%) | 0 (Herbicidal ratio of 5% or lower (almost no effect)) | 0 (Herbicidal ratio of 5% or lower (almost no effect)) | 0 (Herbicidal ratio of 5% or lower (almost no effect)) | – | – | – | – | – | – | – | – | J: Alopecurus myosuroides, herbicidal effect (criteria 0-5) (Alopecurus myosuroides [3]): 5 (Herbicidal ratio of 90% or more (almost completely withered)); F: Digitaria ciliaris, herbicidal effect (criteria 0-5) (Digitaria ciliaris): 5 (Herbicidal ratio of 90% or more (almost completely withered)); L: Apera spica-venti, herbicidal effect (criteria 0-5) (Apera spica-venti): 5 (Herbicidal ratio of 90% or more (almost completely withered))
2 | CON=C(C)CC1CC(OS(=O)(=O)CCCCl)=C(c2c(C)cc(C)cc2C)C1=O (stereo not drawn) [1-142] | 5 (Herbicidal ratio of 90% or more (almost completely withered)) | 5 (Herbicidal ratio of 90% or more (almost completely withered)) | 2 (Herbicidal ratio of 20% or higher and lower than 40%) | 3 (Herbicidal ratio of 40% or higher and lower than 70%) | 5 (Herbicidal ratio of 90% or more (almost completely withered)) | 3 (Herbicidal ratio of 40% or higher and lower than 70%) | 4 (Herbicidal ratio of 70% or higher and lower than 90%) | 0 (Herbicidal ratio of 5% or lower (almost no effect)) | 5 (Herbicidal ratio of 90% or more (almost completely withered)) | 5 (Herbicidal ratio of 90% or more (almost completely withered)) | 0 (Herbicidal ratio of 5% or lower (almost no effect)) | 5 (Herbicidal ratio of 90% or more (almost completely withered)) | – | – | – | – | – | – | – | – | J: Alopecurus myosuroides, herbicidal effect (criteria 0-5) (Alopecurus myosuroides [3]): 5 (Herbicidal ratio of 90% or more (almost completely withered)); F: Digitaria ciliaris, herbicidal effect (criteria 0-5) (Digitaria ciliaris): 5 (Herbicidal ratio of 90% or more (almost completely withered)); L: Apera spica-venti, herbicidal effect (criteria 0-5) (Apera spica-venti): 5 (Herbicidal ratio of 90% or more (almost completely withered))
3 | CON=C(C)CC1CC(OC(=O)Cc2ccc(OC)cc2)=C(c2c(C)cc(C)cc2C)C1=O (stereo not drawn) [1-156] | 5 (Herbicidal ratio of 90% or more (almost completely withered)) | – | – | – | 5 (Herbicidal ratio of 90% or more (almost completely withered)) | – | – | 1 (Herbicidal ratio of 5% or higher and lower than 20%) | 5 (Herbicidal ratio of 90% or more (almost completely withered)) | 5 (Herbicidal ratio of 90% or more (almost completely withered)) | 0 (Herbicidal ratio of 5% or lower (almost no effect)) | 5 (Herbicidal ratio of 90% or more (almost completely withered)) | 5 (Herbicidal ratio of 90% or more (almost completely withered)) | 2 (Herbicidal ratio of 20% or higher and lower than 40%) | 3 (Herbicidal ratio of 40% or higher and lower than 70%) | 4 (Herbicidal ratio of 70% or higher and lower than 90%) | 4 (Herbicidal ratio of 70% or higher and lower than 90%) | 5 (Herbicidal ratio of 90% or more (almost completely withered)) | 5 (Herbicidal ratio of 90% or more (almost completely withered)) | 5 (Herbicidal ratio of 90% or more (almost completely withered)) | –
4 | Cc1cc(C)c(C2=C(O)CC(CC(=O)Cc3ccccc3)C2=O)c(C)c1 (stereo not drawn) [2-015] | 4 (Herbicidal ratio of 70% or higher and lower than 90%) | – | – | – | 0 (Herbicidal ratio of 5% or lower (almost no effect)) | – | – | – | – | 4 (Herbicidal ratio of 70% or higher and lower than 90%) | – | – | 5 (Herbicidal ratio of 90% or more (almost completely withered)) | 0 (Herbicidal ratio of 5% or lower (almost no effect)) | 0 (Herbicidal ratio of 5% or lower (almost no effect)) | 0 (Herbicidal ratio of 5% or lower (almost no effect)) | 4 (Herbicidal ratio of 70% or higher and lower than 90%) | 5 (Herbicidal ratio of 90% or more (almost completely withered)) | 5 (Herbicidal ratio of 90% or more (almost completely withered)) | 3 (Herbicidal ratio of 40% or higher and lower than 70%) | f: beet, effect on crop grade (beet): 0 (Herbicidal ratio of 5% or lower (almost no effect)); J: Alopecurus myosuroides, herbicidal effect grade (Alopecurus myosuroides [4]; [5]): 2 (Herbicidal ratio of 20% or higher and lower than 40%); d: soybean, effect on crop grade (soybean): 0 (Herbicidal ratio of 5% or lower (almost no effect)); b: directly sowed rice plant, effect on crop grade (rice): 4 (Herbicidal ratio of 70% or higher and lower than 90%)
5 | CCc1cc(Br)cc(C)c1C1=C(O)CC(CC(C)=NOC)C1=O (stereo not drawn) [6-001] | 5 (Herbicidal ratio of 90% or more (almost completely withered)) | – | – | – | 5 (Herbicidal ratio of 90% or more (almost completely withered)) | – | – | – | – | 0 (Herbicidal ratio of 5% or lower (almost no effect)) | – | – | 5 (Herbicidal ratio of 90% or more (almost completely withered)) | 0 (Herbicidal ratio of 5% or lower (almost no effect)) | 0 (Herbicidal ratio of 5% or lower (almost no effect)) | 0 (Herbicidal ratio of 5% or lower (almost no effect)) | 2 (Herbicidal ratio of 20% or higher and lower than 40%) | 5 (Herbicidal ratio of 90% or more (almost completely withered)) | 5 (Herbicidal ratio of 90% or more (almost completely withered)) | 5 (Herbicidal ratio of 90% or more (almost completely withered)) | f: beet, effect on crop grade (beet): 0 (Herbicidal ratio of 5% or lower (almost no effect)); J: Alopecurus myosuroides, herbicidal effect grade (Alopecurus myosuroides [4]; [5]): 5 (Herbicidal ratio of 90% or more (almost completely withered)); d: soybean, effect on crop grade (soybean): 0 (Herbicidal ratio of 5% or lower (almost no effect)); b: directly sowed rice plant, effect on crop grade (rice): 5 (Herbicidal ratio of 90% or more (almost completely withered))

Reference: US11000033B2, “Ketone or oxime compound, and herbicide” (NISSAN CHEMICAL CORPORATION, priority 2014, dated 2021)
